Data from US20150031102A1, “METHODS AND COMPOSITIONS FOR ENHANCED PRODUCTION OF BUTANOL BY CLOSTRIDIA” (Butrolix LLC, priority 2012, published 2015).
Several values for one entry are separate records, joined by “and”; a condition that tells them apart may be missing. Equal values may be shown once.

Test system: C. acetobutylicum ATCC 824
Assay: Sequential batch cultures of C. acetobutylicum ATCC 824 grown at 30° C. in YEPG (growth OD600, final pH, ceric ion reactive compounds)
Assay type: cell-based, Clostridium acetobutylicum
Details: for Final pH / Optical density at 600 nm / Optical density of ceric ion reactive compounds measured at 500 nm: 96 h culture
Experimental: Clostridium acetobutylicum ATCC 824 and C. beijerinckii NCIMB 8052 are available from several commercial microbial culture collections including the American Type Culture Collection (ATCC), Manassas, Va., USA. The strain grown at 30 C or 37 C in YE broth, which contained, per liter: 5.0 g yeast extract, 2.5 g casamino acids, 1.0 g L-asparagine, 0.5 g cysteine·HCl, 56 mg K2HPO4, 56 mg KH2PO4, 82 mg anhydrous MgSO4, 8 mg FeSO4.H2O, 6 mg MnSO4.H2O and 10 g glucose. Alternatively, strains were grown in YEPG broth, which was identical to YE expect that K2HPO4 and KH2PO4 were increased to 145 mg/L each and glucose was increased to 60 g/L. The pH of the media was adjusted to 7.2 using 45% KOH prior to sterilization by autoclaving. Media were solidified by addition of 1.5% Bacteriological Agar, Acumedia Manufacturers, Inc., Lansing, Mich. All cultures were grown in anaerobic conditions using the AnaeroPack System, Mitsubishi Gas Chemical Co., Inc., Japan, and GasPak EZ Gas Generating Sachets, Becton, Dickinson and Co., Sparks, Md. Spore stocks were kept at room temperature on agar-solidified media and were activated by suspending spores in 0.5 mL to 1.0 mL of medium followed by heating for 10 min at 80 C before inoculation into growth medium.
Growth of bacterial cultures was measured spectrophotometrically using optical density at 600 nm and pH of cell-free culture supernatants was measured using a hand-held Shindengen ISFET pH Meter KS501, Shendengen Electric Manufacturing Co., Ltd., Bannockburn, Ill.
Total alcohols in cell-free culture supernatants were measured using a modification of a colorimetric method based on ceric ammonium nitrate (Reid and Truelove, 1952). The ceric ion reagent was prepared by adding 1.3 mL of concentrated nitric acid to 40 mL of distilled water, then 10.96 g of ceric ammonium nitrate was dissolved in the dilute nitric acid solution and the solution was brought to a final volume of 50 mL. For the assay, […] of butanol standard or culture supernatant was mixed with […] distilled water in a disposable plastic cuvette followed by addition of […] of the ceric ion reagent. The sample was mixed by inverting the cuvette six times then exactly two minutes later the optical density at 500 nm wavelength was measured. The concentration of total alcohols was determined by comparison with a standard curve prepared by using butanol diluted in distilled water.
Spores of C. acetobutylicum ATCC 824 were germinated and grown overnight at 30 C under anaerobic conditions in YEPG medium. After about 24 h of growth, […] of the culture was transferred (transfer 1) to each of four flasks that contained 10 mL of YEPG and either had no treatment or were treated with peptide SEQ ID NO: 143 (see Table 8 and FIG. 1) at 1 nM, 10 nM or 50 nM. Thereafter, […] of each culture was transferred, at the same time, every 24-48 h to 10 mL of fresh YEPG that contained the same peptide treatment or no treatment. Each culture was stopped after 96 hours of incubation and optical density, pH and ceric ion reactive chemicals were measured. Sequential batch culturing was continued through 5 transfers at which point the untreated culture and those treated with 1 nM and 10 nM of peptide SEQ ID NO: 143 had stopped growing (Table 9). […] In addition, treatment with 1 nM of peptide SEQ ID NO: 143 appeared to stop growth at the first transfer, but growth was restored in the second and third transfers.

Substance: SYPGWSW [peptide SEQ ID NO: 143]
- Extension of growth during sequential batch cultures (1 nM, 30 °C, untreated culture stopped earlier): growth through the third transfer
- Final pH (1 nM, transfer 1, 30 °C): 6.0
- Optical density at 600 nm (1 nM, transfer 1, 30 °C): 0.005
- Optical density of ceric ion reactive compounds measured at 500 nm (1 nM, transfer 1, 30 °C): 0.048
- Final pH (1 nM, transfer 2, 30 °C): 4.4
- Optical density at 600 nm (1 nM, transfer 2, 30 °C): 2.274
- Optical density of ceric ion reactive compounds measured at 500 nm (1 nM, transfer 2, 30 °C): 0.119
- Final pH (1 nM, transfer 3, 30 °C): 4.4
- Optical density at 600 nm (1 nM, transfer 3, 30 °C): 2.165
- Optical density of ceric ion reactive compounds measured at 500 nm (1 nM, transfer 3, 30 °C): 0.167
- Final pH (1 nM, transfer 4, 30 °C): 6.0
- Optical density at 600 nm (1 nM, transfer 4, 30 °C): 0.044
- Optical density of ceric ion reactive compounds measured at 500 nm (1 nM, transfer 4, 30 °C): 0.031
- Final pH (1 nM, transfer 5, 30 °C): 6.0
- Optical density at 600 nm (1 nM, transfer 5, 30 °C): 0.004
- Optical density of ceric ion reactive compounds measured at 500 nm (1 nM, transfer 5, 30 °C): 0.040
- Extension of growth during sequential batch cultures (10 nM, 30 °C): growth through the fourth transfer
- Final pH (10 nM, transfer 1, 30 °C): 4.4
- Optical density at 600 nm (10 nM, transfer 1, 30 °C): 2.001
- Optical density of ceric ion reactive compounds measured at 500 nm (10 nM, transfer 1, 30 °C): 0.175
- Final pH (10 nM, transfer 2, 30 °C): 4.4
- Optical density at 600 nm (10 nM, transfer 2, 30 °C): 2.245
- Optical density of ceric ion reactive compounds measured at 500 nm (10 nM, transfer 2, 30 °C): 0.184
- Final pH (10 nM, transfer 3, 30 °C): 4.5
- Optical density at 600 nm (10 nM, transfer 3, 30 °C): 2.379
- Optical density of ceric ion reactive compounds measured at 500 nm (10 nM, transfer 3, 30 °C): 0.187
- Final pH (10 nM, transfer 4, 30 °C): 4.5
- Optical density at 600 nm (10 nM, transfer 4, 30 °C): 2.266
- Optical density of ceric ion reactive compounds measured at 500 nm (10 nM, transfer 4, 30 °C): 0.192
- Final pH (10 nM, transfer 5, 30 °C): 5.9 and 6.0
- Optical density at 600 nm (10 nM, transfer 5, 30 °C): 0.028
- Optical density of ceric ion reactive compounds measured at 500 nm (10 nM, transfer 5, 30 °C): 0.043
- Extension of growth during sequential batch cultures (50 nM, 30 °C): growth through the fifth transfer
- Final pH (50 nM, transfer 1, 30 °C): 4.4
- Optical density at 600 nm (50 nM, transfer 1, 30 °C): 1.879
- Optical density of ceric ion reactive compounds measured at 500 nm (50 nM, transfer 1, 30 °C): 0.159
- Final pH (50 nM, transfer 2, 30 °C): 4.6
- Optical density at 600 nm (50 nM, transfer 2, 30 °C): 2.089
- Optical density of ceric ion reactive compounds measured at 500 nm (50 nM, transfer 2, 30 °C): 0.189
- Final pH (50 nM, transfer 3, 30 °C): 4.5
- Optical density at 600 nm (50 nM, transfer 3, 30 °C): 2.313
- Optical density of ceric ion reactive compounds measured at 500 nm (50 nM, transfer 3, 30 °C): 0.183
- Final pH (50 nM, transfer 4, 30 °C): 4.4
- Optical density at 600 nm (50 nM, transfer 4, 30 °C): 2.187
- Optical density of ceric ion reactive compounds measured at 500 nm (50 nM, transfer 4, 30 °C): 0.187
- Final pH (50 nM, transfer 5, 30 °C): 4.3
- Optical density at 600 nm (50 nM, transfer 5, 30 °C): 2.173
- Optical density of ceric ion reactive compounds measured at 500 nm (50 nM, transfer 5, 30 °C): 0.174
- Culture degeneration in terms of number of sequential transfers and production of total alcohols (30 °C): prevent culture degeneration
- Number of additional sequential transfers versus a culture without added peptide (30 °C): at least four more times
- Expected extension of time in continuous culture (extrapolated from sequential batch transfers, dilution rate of 0.05/hour): about five-fold
- Expected time in continuous culture (extrapolated from sequential batch transfers, dilution rate of 0.05/hour, from about 140 hours without peptide): about 700 hours
